Source: patent US10852272B2, “Devices and methods using pore size modulation for detecting analytes in a fluid sample” (The Regents of the University of California, priority 2014, dated 2020)

Assays:
[1] = Dissolution (decrosslinking) kinetics of labile crosslinkers under the dissolution treatment (applied stimulus); assay type: physicochemical; details: under the dissolution treatment listed per crosslinker (periodic acid, reducing agent, base or acid)
Source text: Certain properties of labile crosslinkers are described in the table below.

[2] = Half-life of DK as a function of pH; assay type: physicochemical; details: buffer
Experimental: The half-life of DK was 0.03 days at pH 5 and 6 days at pH 7.4 (at 35° C.). To qualitatively confirm decrosslinking functionality, four solutions of tris glycine were titrated to pH values of 8.3, 7.1, 2.6 and 0.07, with the addition of hydrochloric acid. A piece of DK crosslinked PAG was placed into each of the separate solutions to assess dissolution at room temperature. Gels were periodically removed and photographs were taken to qualitatively assess how much gel remained. […] The gels soaking in 8.3 pH and 7.1 pH were not visually affected even after overnight incubation. […] Experiments were performed to study composite crosslinked PAG.

Compound	Dissolution Kinetics [1]	half-life ([2]; pH 5, 35° C.) [h]	half-life ([2]; pH 7.4, 35° C.) [h]
C=CC(=O)OCCOC(=O)C=C [EDA, ethylene glycol diacrylate]	Minutes	–	–
C=CC(=O)NCCSSCCNC(=O)C=C [BAC, N,N′-bis(acryloyl)cystamine]	Minutes	–	–
C=CC(=O)NC(O)C(O)NC(=O)C=C (centres unmarked) [DHEBA, N,N′-(1,2-dihydroxyethylene)bisacrylamide]	Hours	–	–
C=CCNC(=O)C(O)C(O)C(=O)NCC=C (centres unmarked) [DATD, N—N′-diallyltartardiamide]	Hours	–	–
C=CC(=O)NCCOC(C)(C)OCCNC(=O)C=C [DK, N-[2-[2-[2-(prop-2-enoylamino)ethoxy]propan-2-yloxy]ethyl]prop-2-enamide]	Minutes	0.72	144
C=CC(=O)NCCOCCOC(C)(C)OCCOCCNC(=O)C=C [DOK, N,N′-(7,7-dimethyl-3,6,8,11-tetraoxatridecane-1,13-diyl)diacrylamide]	Minutes	–	–
